# Data as given in ChEMBL document CHEMBL1155591, “New anabaenopeptins, potent carboxypeptidase-A inhibitors from the cyanobacterium Aphanizomenon flos-aquae” (J Nat Prod, 2000).
# Active and inactive are the calls of the source. No cut-off for these calls is given here. Starred links: 1 amine or outer side, 2 acyl side, 3 side chain; linkers in the order of their positions; H or OH if unused. Positions of bridges follow the written chain, without caps; N, C: chain ends. Non-standard residues stand in square brackets, D forms with d. Residues, ends and D or L forms follow the SMILES beside them. NMehTyr = CN[C@@H](CCc1ccc(O)cc1)C(=O)O; hTyr = N[C@@H](CCc1ccc(O)cc1)C(=O)O; NMeA = CN[C@@H](C)C(=O)O; CO = O=C([*:1])[*:2]
# Biological target: T1, Carboxypeptidase A1 (Homo sapiens, UniProt P15085)
# T1 sequence (P15085 whole entry): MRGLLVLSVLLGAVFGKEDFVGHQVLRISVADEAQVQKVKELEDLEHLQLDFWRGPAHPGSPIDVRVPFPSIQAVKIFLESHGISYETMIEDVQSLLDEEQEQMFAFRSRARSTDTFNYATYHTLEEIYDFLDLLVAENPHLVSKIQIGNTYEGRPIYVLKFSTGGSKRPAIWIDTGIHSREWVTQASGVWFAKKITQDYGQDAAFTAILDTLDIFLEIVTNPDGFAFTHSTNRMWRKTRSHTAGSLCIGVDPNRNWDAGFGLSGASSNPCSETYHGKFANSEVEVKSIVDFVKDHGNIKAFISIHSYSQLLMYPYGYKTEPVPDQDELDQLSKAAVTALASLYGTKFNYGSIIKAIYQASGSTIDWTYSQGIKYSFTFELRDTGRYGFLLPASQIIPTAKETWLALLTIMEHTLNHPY
# Assay: Inhibition of carboxypeptidase A
row,Compound,IC50 [nM]
1,CC[C@H](C)[C@H](NC(=O)N[C@@H]1CCCCNC(=O)[C@H](CC(C)C)NC(=O)[C@H](C)N(C)C(=O)[C@H](CCc2ccc(O)cc2)NC(=O)[C@H](C(C)C)NC1=O)C(=O)O [ANABAENOPEPTIN I] ({Ile-CO}-[dK]V[hTyr][NMeA]L; lactam 1-C),6.84
2,CC[C@H](C)[C@@H]1NC(=O)[C@H](NC(=O)N[C@@H](Cc2ccc(O)cc2)C(=O)O)CCCCNC(=O)[C@H]([C@@H](C)CC)NC(=O)[C@H](CCc2ccc(O)cc2)N(C)C(=O)[C@H](CCc2ccc(O)cc2)NC1=O [ANABAENOPEPTIN G] ({Tyr-CO}-[dK]I[hTyr][NMehTyr]I; lactam 1-C),7.53
3,CC[C@H](C)[C@H](NC(=O)N[C@@H]1CCCCNC(=O)[C@H]([C@@H](C)CC)NC(=O)[C@H](CCc2ccc(O)cc2)N(C)C(=O)[C@H](CCc2ccc(O)cc2)NC(=O)[C@H](C(C)C)NC1=O)C(=O)O [ANABAENOPEPTIN T] ({Ile-CO}-[dK]V[hTyr][NMehTyr]I; lactam 1-C),25.4
4,CC[C@H](C)[C@H](NC(=O)N[C@@H]1CCCCNC(=O)[C@H](Cc2ccccc2)NC(=O)[C@H](C)N(C)C(=O)[C@H](CCc2ccc(O)cc2)NC(=O)[C@H](C(C)C)NC1=O)C(=O)O [ANABAENOPEPTIN J] ({Ile-CO}-[dK]V[hTyr][NMeA]F; lactam 1-C),9.57
5,CC[C@H](C)[C@@H]1NC(=O)[C@H](NC(=O)N[C@@H](CCCNC(=N)N)C(=O)O)CCCCNC(=O)[C@H]([C@@H](C)CC)NC(=O)[C@H](CCc2ccc(O)cc2)N(C)C(=O)[C@H](CCc2ccc(O)cc2)NC1=O [ANABAENOPEPTIN H] ({Arg-CO}-[dK]I[hTyr][NMehTyr]I; lactam 1-C),3680

# Biological target: T2, Carboxypeptidase A1 (Homo sapiens) (UniProt P15085)
# T2 sequence (whole entry): T1 sequence (P15085 whole entry)
# Assay: Inhibition of carboxypeptidase A at 10 ug/ml
row,Activity,Compound
1,inactive,CC[C@H](C)[C@@H]1NC(=O)[C@H](NC(=O)N[C@@H](CCCNC(=N)N)C(=O)O)CCCCNC(=O)[C@H](Cc2ccccc2)NC(=O)[C@H](C)N(C)C(=O)[C@H](CCc2ccc(O)cc2)NC1=O ({Arg-CO}-[dK]I[hTyr][NMeA]F; lactam 1-C)
2,inactive,CC(C)[C@@H]1NC(=O)[C@H](NC(=O)N[C@@H](CCCNC(=N)N)C(=O)O)CCCCNC(=O)[C@H](Cc2ccccc2)NC(=O)[C@H](C)N(C)C(=O)[C@H](CCc2ccc(O)cc2)NC1=O ({Arg-CO}-[dK]V[hTyr][NMeA]F; lactam 1-C)
3,inactive,CC(C)[C@@H]1NC(=O)[C@H](NC(=O)N[C@@H](CCCNC(=N)N)C(=O)O)CCCCNC(=O)[C@H](Cc2ccccc2)NC(=O)[C@H](C)N(C)C(=O)[C@H](CCc2ccc(O)cc2)N(C)C1=O
